In general, melting point refers to the temperature of the solid-liquid transition.

The text below walks through data of a melting point compilation (Tetko et al.; mined from patent text by program, amines drawn as free bases though some values may be those of a salt).

Residues, ends and D or L forms follow the SMILES beside them. *: point of attachment. Boc = CC(C)(C)OC(=O)* Bounds are passed on as bounds.

In turn, `COc1cc2c(cc1F)C1(CO2)C(=O)Nc2ccccc21` (stereo not drawn) yielded a melting point of 222 to 225 °C.

Compound `CC(CNC(=O)CN1C(=O)CCC1C)N1CCCCC1` (stereo not drawn) returned a melting point of 111 to 112 °C.

In turn, `CNC(=O)NS(=O)(=O)c1cc(CCNC(=O)/C=C/c2cccs2)ccc1OC` came in with a melting point of 120 °C.

`CCOCc1nc2c(c(C)c(C)n3nnnc23)n1CCNC(=O)C(C)C` had a melting point of 179 to 181 °C.

`COc1cc2[nH]nc(CN3CCN(c4ccccc4OC)CC3)c2cc1OC` returned a melting point of 192 °C.

`COC(=O)c1cccc2c(=O)c3cccc(I)c3[nH]c12` gave a melting point of 174 to 176 °C.

Compound `O=C(C=C1CCCN1)c1ccccc1` displayed a melting point of 115 to 116 °C.

For the compound `CCOC(=O)c1cc(F)ccc1[N+](=O)[O-]`, the melting point is < 50 °C.

In turn, `CCn1nc(-c2ccccc2)c(C(C)=O)c(Nc2cccc(F)c2)c1=O` returned a melting point of 176 to 178 °C.

`Cc1c(S(C)(=O)=O)cc([N+](=O)[O-])c(Cl)c1[N+](=O)[O-]` displayed a melting point of 174 to 175 °C.

The compound `N#CC(Cc1ccco1)(Cn1cncn1)c1ccc(Cl)cc1` (stereo not drawn) showed a melting point of 112 to 114 °C.

The compound `N#Cc1cn2cc(Br)nc(N3CCOCC3)c2n1` yielded a melting point of 265 °C.

Take `CCCc1c2c(c(O)c3c(=O)cc(C(=O)OCC)oc13)CCCC2`: the melting point was in the range of 136 to 138 °C.

Regarding `CCOC(=O)c1cnc2c(c(C)nc3cc(C)nn32)c1Cl`, the melting point was in the range of 143 to 145 °C.

Turning to `CCOC(=O)c1cn(CCO)c2nc(N3CCN(C(=O)OCC)CC3)c(F)cc2c1=O`, the melting point was in the range of 215 to 217 °C.

`CC(C)(C)OC(=O)NC(C(=O)O)C1=CSCCO1` (stereo not drawn) had a melting point of 160 °C.

As to `Cc1cn(-c2nc(C)cc3[nH]c(=O)ccc23)cn1`, the melting point was 307 to 308 °C.

`CCCOn1c(C)nc(N2CCc3ccccc3CC2)c(C#N)c1=O` showed a melting point of 132 to 134 °C.

As to `CC1=C(N)C(=O)C2CC1C2(C)C` (stereo not drawn), the melting point fell in the range of 45 to 46 °C.

In the case of `Cc1nc(N2CCC(O)C2)c2nc(-c3ccccc3)cc-2[nH]1` (stereo not drawn), the melting point was in the range of 234 to 235 °C.

As to `COc1cnccc1-c1csc(Cc2ccccc2)n1`, the melting point was 76 to 77 °C.

Compound `O=C(Nc1ccc2[nH]c(=S)oc2c1)C(=O)N1CCC(Cc2ccccc2)CC1` showed a melting point of 203 °C.

Turning to `Cc1cc2c(cc1S(N)(=O)=O)S(=O)(=O)NC(C1CCCCC1)N2` (stereo not drawn), the melting point was 231 to 233 °C.

The compound `CN(C)c1ccc2cc(C(/C=C\NCCO)=C(C#N)C#N)ccc2c1` came in with a melting point of 168 to 170 °C.

In turn, `Nc1nc(N)c(-c2cc(Cl)cc(Cl)c2Cl)nc1Br` gave a melting point of 222 to 224 °C.

`COc1ccc2c(c1)CCC1CCNC(=O)C(CCNC(C)C)=C21` (stereo not drawn): the melting point was 147 to 149 °C.

Take `Cc1nc2c(s1)-c1nc(N)ncc1CC2`: the melting point was 241 to 243 °C.

Regarding `Cc1c(Cl)sn(-c2ccccc2)c1=O`, the melting point lay within 60 to 68 °C.

Consider `Cc1oc(C=Cc2ccc(Cl)cc2)nc1CC#N`, for which the melting point lay within 124 to 125 °C.

Compound `CN1CCN(Cc2cc(-c3ccc4c(c3)CCO4)nn(Cc3ccc(F)cc3)c2=O)CC1` showed a melting point of 179 to 180 °C.

The compound `O=C(Cn1c(-c2ccc(Cl)cc2)nc2cccnc21)c1ccccc1` gave a melting point of 211 to 212 °C.

Compound `Cc1nc(-c2ccccc2F)cn1-c1ccc(COc2ncc(C(F)(F)F)cc2Cl)cc1` gave a melting point of 109 °C.

Consider `CC(C)c1cccc(C(C)C)c1NC(=O)CCCCCSc1nc2cnccc2[nH]1`, for which the melting point fell in the range of 96 to 98 °C.

For the compound `NC(=O)N1CCC(Oc2c(F)c(F)c(F)c(F)c2F)CC1`, the melting point lay in the range of 170 to 172 °C.

In turn, `CCOC(=O)C1(C(=O)OCC)OC(=O)c2ncccc2C1(O)c1ccccc1` (stereo not drawn) had a melting point of 146 to 147 °C.

With `CCOC(=O)C1=C(C)NC(COCCN=[N+]=[N-])=C(C(=O)OC)C1c1cccc(Cl)c1Cl` (stereo not drawn), the melting point was found to be 126 °C.

With `CCOC(Cc1ccc(NCCCC2=CCC(NS(C)(=O)=O)(OC(C)(C)C)C=C2)cc1)C(=O)O` (stereo not drawn), the melting point was 78 to 80 °C.

`CCOC(=O)C(=CNC1CC1)C(=O)c1c(F)cc(F)c(F)c1N(Cc1ccccc1)C(C)=O`: the melting point fell in the range of 119 to 121 °C.

`COc1ccc2c(c1)c(CC(=O)OC(OC(C)=O)c1ccccc1)c(C)n2C(=O)c1ccc(Cl)cc1` (stereo not drawn) yielded a melting point of 93 to 94 °C.

Compound `C=C1CCC2C3CCc4cc(O)c(C=O)cc4C3CCC12C` (stereo not drawn) gave a melting point of 128 to 130 °C.

In turn, `N#CC(C(=O)c1ccc(Cl)cc1)=C1CCCN1C(=O)c1ccc(Cl)cc1` yielded a melting point of 218 °C.

Compound `COc1cc2c(cc1OCc1ccccc1)CCCNC2=O` yielded a melting point of 192 to 193 °C.

Regarding `COc1cc(-c2cnc3ccccc3n2)cc([N+](=O)[O-])c1O`, the melting point fell in the range of 195 to 197 °C.

As to `CN1C(=O)c2cc(Cl)ccc2N(C(=O)CCN2CCCC2)c2ccccc21`, the melting point was in the range of 118 to 120 °C.

As for `CC1(C)Oc2ccc(C#N)cc2[C@@H](NC(=O)Nc2cccc(-c3ncno3)c2)[C@@H]1O`, the melting point lay in the range of 168 to 170 °C.

Take `COc1ccc(C(C)=Cc2ccncc2)c2c1OC1(CCCC1)C2`: the melting point was in the range of 85 to 87 °C.

Compound `N#CC(c1cccnc1)C1CCN(C(=O)CC(NC(=O)c2cccc(OCc3ccc4ccccc4n3)c2)c2ccccc2)CC1` (stereo not drawn) displayed a melting point of 91 to 97 °C.

For the compound `C=CCN(C(=O)c1cnc(N2CC(C)(C)NC2=O)nc1N)c1cccc(C(F)(F)F)c1`, the melting point is 187 to 188 °C.

`O=C(O)Cc1ccc(N(C(=O)C(COC2CCCCO2)NS(=O)(=O)c2ccc3ccccc3c2)c2ccc(CC(=O)O)cc2)cc1` (racemic): the melting point was in the range of 130 to 140 °C.

For the compound `CCCCCNC(=O)N(C)c1cccc(-c2ccc(C=C(C)C(=O)O)cc2OCCCC)c1`, the melting point lay within 87 to 89 °C.

In turn, `CCCCCCCNC(=O)Nc1ccccc1C(=O)N1CCN(C(c2ccccc2)c2ccccc2)CC1` displayed a melting point of 125 to 127 °C.

`CC1CN(c2ccc(-c3[nH]nc4c3C(=O)c3c(NC(=O)NN5CCOCC5)cccc3-4)cc2)CCN1` (stereo not drawn) yielded a melting point of 230 °C.

As for `O=C(NCCCSc1ccncc1)c1ccccc1CO`, the melting point was 110 to 111 °C.

On to `Cn1nnnc1Cc1ccc(NC(=O)/C=C/c2cnn(C)c2-c2ccc(F)cc2)cc1`, for which the melting point was in the range of 243 to 244 °C.

In the case of `COC(=O)CN1CC(=O)NC1=NN=Cc1ccccc1`, the melting point was 149 to 153 °C.

Turning to `COc1ccc2c(c1OCC#N)CCC=C2`, the melting point lay in the range of 138 to 139 °C.

The compound `CCOC(=O)CC(=O)NNc1ncc(-c2ccccc2)nc1CC(C)C` gave a melting point of 116 to 118 °C.

`O=C(Cn1c(-c2ccc(Cl)cc2)nc2cccnc21)Nc1ccccc1Cl` registered a melting point of 232 to 236 °C.

The compound `COc1cc(Nc2c(C#N)cnc3cc(-c4cnc(C=O)n4C)ccc23)c(Cl)cc1Cl` returned a melting point of 186 to 189 °C.

`CC1(c2ccccc2)C(=O)Nc2ccccc2C1=O` (stereo not drawn) displayed a melting point of 194 to 196 °C.

`Nc1cccc(S(=O)(=O)NCc2cccnc2)c1` yielded a melting point of 129 °C.

`O=C(O)c1ccc2cc(OCCN3CCN(c4ccc(Cl)cc4)CC3)ccc2c1` showed a melting point of 197 to 199 °C.

On to `O=C(O)Cc1cnn(-c2ccc(Cl)cc2)c1-c1ccccc1`, for which the melting point was 110 to 111 °C.

In turn, `COc1ccccc1Oc1c(Cl)ncnc1NS(=O)(=O)c1ccc(C(C)(C)C)cc1` had a melting point of 152 °C.

`O=C(O)c1ccc2c(c1)C(=O)c1cc(C(=O)O)ccc1S2(=O)=O`: the melting point lay within 372 to 375 °C.

`O=[N+]([O-])c1ccc(Oc2ccc(CBr)cc2)cc1` registered a melting point of 68 to 70 °C.

`CCc1cccc(CC)c1NC(=O)c1c(C)oc(C)cc1=O` gave a melting point of 83.5 to 84.5 °C.

As to `COc1cc2[nH]c3nc[nH]c(=O)c3c2cc1OC`, the melting point is 296 to 298 °C.

The compound `CNc1c(C#N)c(C(F)(F)F)nn1-c1c(Cl)cc(C(F)(F)F)cc1Cl` yielded a melting point of 200 to 202 °C.

In turn, `CCOC12CC(C)(C)C(O1)C(OC(=O)c1ccc(N)cc1)C=C2C` (stereo not drawn) returned a melting point of 130 to 132 °C.

For the compound `CC(=O)C1C(=O)CN(Cc2ccccc2)C1=O` (stereo not drawn), the melting point is 74 to 75 °C.

`CC(C)(C)c1nn(-c2c(Cl)cc(C(F)(F)F)cc2Cl)c(N)c1Cl`: the melting point stood at 137 °C.

As to `CC(Oc1ccc(Cl)cc1)c1nnc(N2C(=O)N(C)CC2O)s1` (stereo not drawn), the melting point lay within 147 to 149 °C.

The compound `O=C(C1CC1)N1CCCCc2cc(C(O)(C(F)(F)F)C(F)(F)F)ccc21` yielded a melting point of 165 to 167 °C.

For the compound `O[C@H]1COC(c2ccc(Cl)cc2)=N[C@@H]1c1ccccc1` (racemic), the melting point turned out to be 142 °C.

`COc1ccccc1OC1CCN(c2nc(-c3ccccc3)nc3ccccc23)C1` (stereo not drawn): the melting point was in the range of 142 to 144 °C.

Regarding `O=c1c(-c2ccc[nH]2)coc2ccccc12`, the melting point was 134 to 135 °C.

Regarding `COc1ccc(C)cc1N1CCN(C(=O)Nc2cc3ccccc3nc2OC)CC1`, the melting point fell in the range of 115 to 116 °C.

In turn, `CCOC(=O)COc1cccc2c1oc1sc(Nc3ccccc3)nc12` registered a melting point of 196 to 198 °C.

As for `Cc1cc(CCCOc2c(C)cc(-c3noc(=O)[nH]3)cc2C)on1`, the melting point lay in the range of 194 to 195 °C.

The compound `COC(=O)C(CCn1c(Cl)ccc1C(=O)c1ccc(Cl)cc1)C(=O)OC` showed a melting point of 72.5 to 73.5 °C.

In turn, `CC(C)(C)OC(=O)N1CCCC1C(=O)NC(Cc1ccccc1)C(=O)NCC(=O)O` (stereo not drawn) (Boc-Pro-Phe-Gly-OH; configuration not given here) yielded a melting point of 98 to 100 °C.

Turning to `FC(F)(F)c1cccc(C2=NN3CCN=C3C=C2)c1`, the melting point fell in the range of 137 to 139 °C.

On to `O=c1[nH]c2ccccc2n1CCN1CCC(Cc2c[nH]c3ccc(F)cc23)CC1`, for which the melting point came to 220 °C.

Turning to `COc1ccc(-c2nc(C(F)(F)F)[nH]c2-c2ccc(S(C)(=O)=O)cc2)cc1F`, the melting point is 228 to 234 °C.

In the case of `O=Cc1cccnc1Nc1ccccc1F`, the melting point was 94 °C.

In turn, `CC(C)(C)c1ccc(CCC(O)CC2CCCCC2)cc1NC(=O)NCC1c2ccccc2Oc2ccccc21` (stereo not drawn) returned a melting point of 156 to 157 °C.

`CC(O)(c1nc2ccc(S(=O)(=O)c3ccccc3)cc2c(=O)[nH]1)C(F)(F)F` (stereo not drawn) had a melting point of 202 to 204 °C.
